The test system of series [1] is human umbilical vein ECs. In words: Endothelial cell immune activation (gene and protein expression of IL-8, IL-6, ICAM-1, PAI-1). The format is cell-based. How it is done: (§1) Endothelial cell immune activation. Primary culture human umbilical vein ECs (passages 4-8, Lonza, Walkersville MD) were seeded into 6-well plates and grown to full confluence. Human umbilical vein ECs have been extensively used to study vascular cell behavior in neurodegenerative disease studies such as AD and VaD as they show similarity in properties as brain ECs, including Aβ metabolism^23, 24, expression of tight junction proteins^25 and metabolic interactions with neural cells^26. ECs were exposed to 20 hours of vehicle or medin (5 μM, dose chosen as this was the mean medin concentration found in human vascular tissue) without or with NLGM1 (300 μM). Additional replicates were also treated with NLGM1 (300 μM) plus transcription factor nuclear factor erythroid 2-related factor 2 (Nrf2) inhibitor brusatol (1 μM). EC immune activation was assessed using gene and protein expressions of inflammation-related cytokines/chemokines interleukin (IL)-8, IL-6, intercellular adhesion molecule (ICAM)-1) and plasminogen activator inhibitor (PAI)-1 (primers from IDT DNA Technologies, Coralville IL)^6, 16. Following lysis, RNA was extracted and converted to cDNA using Aurum Total RNA Mini Kit and iScript cDNA synthesis kit (Bio-Rad Laboratories, Coralville IA) with β-actin as reference normalization gene normalization. […] The conditioned cell media from treated ECs were analyzed for IL-8 and IL-6 protein by enzyme linked immunosorbent assay (ELISA) using DuoSet kit (R&D Systems, Minneapolis MN). ICAM-1 protein was measured from whole cell lysate using ICAM-1 ELISA kit (R&D Systems). PAI-1 and phosphorylated NFκB (phospho-NFκB p65, Ser536, 93H1) proteins were measured using Western blot (1:500, Cell Signaling Technology, Danvers MA).

The test system of series [2] is human adipose and leptomeningeal arterioles. In words: Endothelial function of human arterioles exposed to medin. The conditions noted are these: medin 1 μM; Aβ42 0.5 μM.
Series [3] concerns Nrf2. As to the kind of experiment: Nuclear Nrf2, HO-1 and NQO1 protein in ECs, Western blot. The class given is cell-based, human. The procedure:
Activated Nrf-2 protein was measured by separating the nuclear from cytosolic components using NE-PER Nuclear and Cytoplasmic Extraction kit (Thermo Scientific, Rockford IL) and using anti-Nrf2 primary antibody (1:500, Cell Signaling) on nuclear proteins using Western blot with tubulin as loading control. Heme oxygenase (HO)-1 and NAD(P)H Quinone dehydrogenase 1 (NQO1) proteins were measured from whole cell lysates using anti-HO-1 (1:1000, Cell Signaling Technology) and anti-NQO1 (1:1000, Cell Signaling) primary antibodies.

Series [4] concerns human umbilical vein ECs. The format is cell-based. The conditions noted are these: medin + NLGM1 + brusatol (1 μM).
The subject of series [5] is human umbilical vein ECs. In words: Endothelial cell oxidative stress (superoxide, dihydroethidium fluorescence). The format is cell-based.
Series [6] has as its system adipose arterioles exposed to amyloid LC proteins. In words: Endothelial function (max response to acetylcholine) of adipose arterioles exposed to amyloid LC proteins. The arrangement: species or system human. To be noted: NLs conjugated with clusterin (300 ng/mL), control 91.6±2%. How it is done:
Attempts to formulate NLs (cholesterol and phosphatidylcholine) that are conjugated with clusterin (300 ng/mL), both non-covalently as well as covalently through PEGylation, was successful.

Series [7] has the same test system. To be noted: LC from AL light chain amyloidosis patients; cited from earlier work.
For series [8], the system named is Human primary astrocytes. As to the kind of experiment: Astrocyte monoculture IL-8 production. The format is cell-based. The conditions noted are these: astrocytes exposed 20 hours to conditioned media from medin (5 μM)-treated ECs. The procedure: Astrocyte monoculture. Human primary astrocytes (passage 3, Gibco, Madison WI) were seeded in gelatin matrix (4×10^4 cells/cm^2) coated plates, allowed to attach overnight and exposed for 20 hours to vehicle, medin (5 μM), conditioned media from vehicle-treated ECs (10% vol/vol exchange) or conditioned media from medin (5 μM)-treated ECs. Conditioned media IL-8 were measured by ELISA.

The test system of series [9] is Human primary astrocytes with human umbilical vein ECs. In words: 3D chip astrocyte and endothelial cell coculture IL-8. The format is cell-based. The conditions noted are these: medin treated chips with ECs compared to medin treated chips without ECs; 20 hours. The source says: Microfluidic chip fabrication and 3D chip astrocyte and endothelial cell coculture. The microfluidic platform was fabricated in polydimethylsiloxane (PDMS) using standard SU-8 photolithography and replica molding technique, consisting of two side channels for seeding of endothelial cells (ECs) and a central region for astrocyte culture. The dimensions of the side channels' (length, width and height, are 4 mm, 250 μm and 200 μm respectively. The width of the 3D central region is 2 mm Elliptical micro-posts were localized within the central tissue region (500 um width, 100 um height) with specific micro-post spacing to optimize alignment of the astrocytes, while maintaining cellular connectivity and paracrine signaling. Creation of the master silicon wafer through photolithography was executed through spin-coating of SU-8 on a wafer to a height of 200 μm. The wafer was soft-baked, then exposed to UV through a transparent photomask with the chip design. After post-baking, the developed wafer was used as the substrate for soft lithography with PDMS replica molding. A PDMS base: curing agent ratio of 10:1 was used. Then, the PDMS channels were bonded to glass slides through oxygen plasma. […]
Human umbilical vein ECs were seeded into the side channels (2×10^6 cells/mL in EC media) overnight. […] Conditioned media IL-8 were measured using ELISA.

The test system of series [10] is NFκB. In words: NFκB activation (phosphorylated NFκB) in ECs, Western blot. The format is cell-based, human. The conditions noted are these: post-exposure to medin. How it is done:
as §1
(In general: Immunoblotting shows a protein as a band on a membrane.)

[11] abbreviates: ECs 20 hours, medin 5 μM without or with co-treatment.
The mark [12] stands for this setting: medin + NLGM1 + brusatol (1 μM).
Where [13] appears, read: ECs 20 hours, medin 5 μM without or with co-treatment, ELISA of conditioned media.

As for `[O-][S+](c1ccccc1)c1ccc2nnnn2n1` (stereo not shown) [RO106-9920, reference compound], in series [1] (setting [11]), the “EC ICAM-1 gene expression” value is given as “abolished”, the “EC IL-6 gene expression” value is “abolished”, the “EC IL-8 gene expression” value is reported as “abolished” and the “EC PAI-1 gene expression” value is listed as “abolished”.
For Aβ42: beta amyloid peptide, the “endothelial and smooth muscle dysfunction compared to control response” value in [2] is reported as “caused endothelial, but not smooth muscle dysfunction”.
Regarding brusatol, the “protective effect of NLGM1 against medin-induced EC immune activation” value in series [1] (medin + NLGM1 + brusatol (1 μM), FIG. 8H-K) is reported as “did not abolish”. Further, in series [3] (setting [12]), the “increase in HO-1 by NLGM1 co-treatment with medin” value is “abolished” and the “increase in NQO1 by NLGM1 co-treatment with medin” value was “abolished”. In series [4], the “protective effect of NLGM1 in terms of cell viability” value was “reversed”. In addition, the “protective effect of NLGM1 on medin-induced superoxide production” value in [5] (setting [12]) is recorded as “abolished”.
As to “free clusterin: 80-kDa chaperone glycoprotein; sCLU isoform, commercial human recombinant clusterin protein”, the “max response to acetylcholine” value in series [6] is 86.4±3.9%. Besides, the “endothelial dysfunction in human arterioles exposed to amyloidogenic light chain (LC) proteins” value in [7] is listed as “reversed”.
In the case of “medin: recombinant 50-amino acid amyloid peptide, cleavage product of milk fat globule-EGF factor 8 protein”, the “endothelial and smooth muscle dysfunction compared to control response” value in [2] is on record as “caused endothelial, but not smooth muscle dysfunction”. In [1] (setting [11]), the “EC ICAM-1 gene expression” value is reported as “increased”, the “EC IL-6 gene expression” value is on record as “increased”, the “EC IL-8 gene expression” value is recorded as “increased” and the “EC PAI-1 gene expression” value is listed as “increased”. Also, in [1] (setting [13]), the “EC IL-6 protein expression” value is listed as “increased” and the “EC IL-8 protein expression” value is listed as “increased”. Also, the “EC ICAM-1 protein expression” value in series [1] (ECs 20 hours, medin 5 μM without or with co-treatment, ELISA of whole cell lysate) is reported as “increased”. In series [1] (ECs 20 hours, medin 5 μM without or with co-treatment, Western blot), the “EC PAI-1 protein expression” value is recorded as “increased”. Further, in [3] (ECs treated with the substance alone), the “nuclear Nrf2 (Nrf2 activation)” value is recorded as “no accompanying Nrf2 activation”. The “astrocyte IL-8 production” value in [8] is given as “significant increase”. Also, in series [5] (ECs 20 hours, medin without or with NLGM1), the EC superoxide production result is reported as “increased”. The “astrocyte media IL-8” value in series [9] is reported as “significantly higher”. For the same compound, in [10], the “NFκB activation (phosphorylated NFκB) in ECs, peak” value was found to be 1 h; the “NFκB activation (phosphorylated NFκB) in ECs, persistence” value came to 20 h; the “NFκB activation (phosphorylated NFκB) in ECs, start” value was 15 min.

The record behind these values is US12383500B2, “Nanoliposome compositions and methods of using the same” (United States Government as represented by the Department …, priority 2018, dated 2025).
